pIC50: −log10 of the molar value. Calls of active or inactive are those of the source. The rule behind the calls is not given here.
Legend:
[1] = tested on: A549; assay: Induction of apoptosis in human A549 cells assessed as late apoptotic cells at 100 nM after 72 hrs by annexin V-FITC/propidium iodide staining-based flow cytometric method (reference value: 4.1%); format: functional
[2] = tested on: L02; assay: Cell cycle arrest in human L02 cells assessed as accumulation at S phase at 5 nM after 72 hrs by propidium iodide staining-based flow cytometric method (reference value: 25.78%); format: ADME; conditions: l02, 72 h, 0.005 µM
[3] = tested on: MCF7; assay: Cytotoxicity against human MCF7 cells assessed as growth inhibition after 72 hrs by MTT assay; format: functional, cell-based; conditions: MCF7, 72 h
[4] = tested on: A549; assay: Cell cycle arrest in human A549 cells assessed as accumulation at G2/M phase at 100 nM after 72 hrs by propidium iodide staining-based flow cytometric method (reference value: 14.23%); format: functional
[5] = tested on: A549; assay: Cell cycle arrest in human A549 cells assessed as accumulation at S phase at 5 nM after 72 hrs by propidium iodide staining-based flow cytometric method (reference value: 24.48%); format: functional
[6] = tested on: A549; assay: Induction of apoptosis in human A549 cells assessed as necrotic cells at 10 nM after 72 hrs by annexin V-FITC/propidium iodide staining-based flow cytometric method (reference value: 0.1%); format: functional
[7] = tested on: A549; assay: Induction of apoptosis in human A549 cells assessed as viable cells at 200 nM after 72 hrs by annexin V-FITC/propidium iodide staining-based flow cytometric method (reference value: 92.8%); format: functional; conditions: A549, 72 h, read-out: Activity
[8] = tested on: A549; assay: Induction of apoptosis in human A549 cells assessed as late apoptotic cells at 200 nM after 72 hrs by annexin V-FITC/propidium iodide staining-based flow cytometric method (reference value: 4.1%); format: functional
[9] = Induction of apoptosis in human L02 cells assessed as viable cells at 10 nM after 72 hrs by annexin V-FITC/propidium iodide staining-based flow cytometric method (reference value: 96.3%); format: cell-based; conditions: read-out: Activity
[10] = tested on: A549; assay: Cell cycle arrest in human A549 cells assessed as accumulation at G0/G1 phase at 100 nM after 72 hrs by propidium iodide staining-based flow cytometric method (reference value: 61.29%); format: functional
[11] = tested on: A549; assay: Induction of morphological changes in nucleus of human A549 cells at 10 to 30 nM after 72 hrs by DAPI staining-based fluorescence microscopic method; format: functional, cell-based
[12] = tested on: L02; assay: Cell cycle arrest in human L02 cells assessed as accumulation at G2/M phase at 100 nM after 72 hrs by propidium iodide staining-based flow cytometric method (reference value: 16.88%); format: ADME; conditions: l02, 72 h, 0.1 µM
[13] = tested on: A549; assay: Induction of apoptosis in human A549 cells assessed as early apoptotic cells at 200 nM after 72 hrs by annexin V-FITC/propidium iodide staining-based flow cytometric method (reference value: 3%); format: functional
[14] = tested on: L02; assay: Induction of apoptosis in human L02 cells assessed as late apoptotic cells at 100 nM after 72 hrs by annexin V-FITC/propidium iodide staining-based flow cytometric method (reference value: 1.6%); format: cell-based; conditions: l02, 72 h, 0.1 µM
[15] = tested on: A549; assay: Induction of apoptosis in human A549 cells assessed as late apoptotic cells at 10 nM after 72 hrs by annexin V-FITC/propidium iodide staining-based flow cytometric method (reference value: 4.1%); format: functional
[16] = Selectivity index, ratio of IC50 for human L02 cells to IC50 for human A549 cells; format: toxicity; conditions: L02 cells versus A549 cells, read-out: Ratio IC50
[17] = tested on: L02; assay: Induction of apoptosis in human L02 cells assessed as early apoptotic cells at 10 nM after 72 hrs by annexin V-FITC/propidium iodide staining-based flow cytometric method (reference value: 2%); format: cell-based; conditions: l02, 72 h, 0.01 µM
[18] = tested on: L02; assay: Induction of apoptosis in human L02 cells assessed as late apoptotic cells at 10 nM after 72 hrs by annexin V-FITC/propidium iodide staining-based flow cytometric method (reference value: 1.6%); format: cell-based; conditions: l02, 72 h, 0.01 µM
[19] = tested on: A549; assay: Induction of apoptosis in human A549 cells assessed as necrotic cells at 200 nM after 72 hrs by annexin V-FITC/propidium iodide staining-based flow cytometric method (reference value: 0.1%); format: functional
[20] = tested on: L02; assay: Induction of morphological changes in human L02 cells at 10 to 30 nM after 72 hrs by DAPI staining-based fluorescence microscopic method; format: cell-based; conditions: l02, 72 h, 0.03 µM
[21] = tested on: L02; assay: Cell cycle arrest in human L02 cells assessed as accumulation at G0/G1 phase at 5 nM after 72 hrs by propidium iodide staining-based flow cytometric method (reference value: 57.34%); format: ADME; conditions: l02, 72 h, 0.005 µM
[22] = tested on: A549; assay: Cell cycle arrest in human A549 cells assessed as accumulation at G0/G1 phase at 5 nM after 72 hrs by propidium iodide staining-based flow cytometric method (reference value: 61.29%); format: functional
[23] = tested on: HepG2; assay: Cytotoxicity against human HepG2 cells assessed as growth inhibition after 72 hrs by MTT assay; format: functional, cell-based; conditions: HepG2, 72 h
[24] = tested on: A549; assay: Induction of apoptosis in human A549 cells assessed as early apoptotic cells at 100 nM after 72 hrs by annexin V-FITC/propidium iodide staining-based flow cytometric method (reference value: 3%); format: functional
[25] = tested on: L02; assay: Cell cycle arrest in human L02 cells assessed as accumulation at S phase at 10 nM after 72 hrs by propidium iodide staining-based flow cytometric method (reference value: 25.78%); format: ADME; conditions: l02, 72 h, 0.01 µM
[26] = tested on: A549; assay: Induction of apoptosis in human A549 cells after 72 hrs by annexin V-FITC/propidium iodide staining-based flow cytometric method; format: functional, cell-based
[27] = tested on: L02; assay: Induction of apoptosis in human L02 cells assessed as late apoptotic cells at 200 nM after 72 hrs by annexin V-FITC/propidium iodide staining-based flow cytometric method (reference value: 1.6%); format: cell-based; conditions: l02, 72 h, 0.2 µM
[28] = tested on: A549; assay: Cell cycle arrest in human A549 cells assessed as accumulation at G0/G1 phase at 10 nM after 72 hrs by propidium iodide staining-based flow cytometric method (reference value: 61.29%); format: functional
[29] = tested on: L02; assay: Cell cycle arrest in human L02 cells assessed as accumulation at G2/M phase at 10 nM after 72 hrs by propidium iodide staining-based flow cytometric method (reference value: 16.88%); format: ADME; conditions: l02, 72 h, 0.01 µM
[30] = tested on: L02; assay: Induction of apoptosis in human L02 cells assessed as early apoptotic cells at 100 nM after 72 hrs by annexin V-FITC/propidium iodide staining-based flow cytometric method (reference value: 2%); format: cell-based; conditions: l02, 72 h, 0.1 µM
[31] = tested on: L02; assay: Cell cycle arrest in human L02 cells assessed as accumulation at G0/G1 phase at 10 nM after 72 hrs by propidium iodide staining-based flow cytometric method (reference value: 57.34%); format: ADME; conditions: l02, 72 h, 0.01 µM
[32] = tested on: A549; assay: Cell cycle arrest in human A549 cells assessed as accumulation at S phase at 10 nM after 72 hrs by propidium iodide staining-based flow cytometric method (reference value: 24.48%); format: functional
[33] = tested on: A549; assay: Induction of apoptosis in human A549 cells assessed as viable cells at 100 nM after 72 hrs by annexin V-FITC/propidium iodide staining-based flow cytometric method (reference value: 92.8%); format: functional; conditions: A549, 72 h, read-out: Activity
[34] = tested on: A549; assay: Cytotoxicity against human A549 cells assessed as growth inhibition after 72 hrs by MTT assay; format: functional, cell-based; conditions: A549, 72 h
[35] = tested on: A549; assay: Cell cycle arrest in human A549 cells assessed as accumulation at S phase at 100 nM after 72 hrs by propidium iodide staining-based flow cytometric method (reference value: 24.48%); format: functional

Work on `COc1cc([C@@H]2c3cc4c(cc3[C@H](OC(=O)CN(C)C(=O)OC(C)(C)C)[C@H]3COC(=O)[C@H]23)OCO4)cc(OC)c1OC` yielded an Activity [1] of 3%, an Activity [2] of 24.04% and a pIC50 [3] of 6.88. The Activity [4] was 17.14%, the Activity [5] was 26.07% and the Activity [6] was 0%. For the same compound, the viability at 0.2 µM [7] was 5.1%, the Activity [8] was 2.1% and the viability at 72 h, 0.01 µM [9] was 94.1%. The Activity [10] was 36.73%, the Activity [11] was “Active” and the Activity [12] was 13.78%. The Activity [13] was 92.8%, the Activity [14] was 2.1% and the Activity [15] was 8.1%. It also gave a selectivity ratio [16] of 16.9, an Activity [17] of 4.3% and an Activity [18] of 1.6%. For the same compound, the Activity [19] was 0%, the Activity [20] was “Non-Toxic” and the Activity [21] was 62.19%. For the same compound, the Activity [22] was 60.2%, the pIC50 [23] was 7.02 and the Activity [24] was 84.6%. The Activity [25] was 24.59%, the Activity [26] was “Dose-dependent effect” and the Activity [27] was 3.1%. It also gave an Activity [28] of 59.2%, an Activity [29] of 13.11% and an Activity [30] of 10.6%. It also gave an Activity [31] of 62.3%, an Activity [32] of 27.26% and a viability at 0.1 µM [33] of 12.4%. It also gave a pIC50 [34] of 8.02 and an Activity [35] of 47.13%.

— ChEMBL document CHEMBL4152293, “Synthesis and biological evaluation of podophyllotoxin derivatives as selective antitumor agents” (Eur J Med Chem, 2018)
